Measurements reported in patent US8940936B2, “Aryloxy phenoxy acrylic compound having HIF-1 inhibition activity, method for preparing same, and pharmaceutical composition containing same as an active ingredient” (Korea Research Institute of Bioscience and Biotechnology, priority 2010, dated 2015).

Legend:
[1] = Mouse weight changes and symptoms, repeated intravenous administration (HCT116 model); type: in vivo; conditions: for Mouse weight changes (%): iv once a day, Example 1 30 mg/kg, topotecan 2 mg/kg
Protocol: (§1) Female nude mice at 6 weeks (BALB/c nu/nu, Charles River) were raised in a germ-free facility where temperature and humidity were maintained at proper levels during the whole experimental period. After anesthetizing each mouse, the human rectal cancer cell line HCT116 was transplanted in rectal tissues at the density of 4×10^7 cells/mouse, and then the opened rectum was sealed with surgical clips. After transplanting the rectal cancer cell line, the tumor volume was measured with calipers. When the tumor volume reached 54.5 mm^3, the compound of the present invention prepared in example 1 was treated thereto. Particularly, for the experimental group, the compound of example 1 was dissolved in the solvent composed of saline (80%), DMAC (10%), and tween 80 (10%), which is indicated as ‘solvent A’ hereinafter, at the concentration of 30 mg/kg. The prepared compound solution was intravenously administered to the experimental group mice once a day at the dose of 15 mg/kg. The control was treated with the solvent A only without the compound once a day via oral administration at the dose of 15 ml/kg. The comparative group was treated with the solvent A containing topotecan (2 mg/kg) via intravenous injection once a day at the dose of 15 ml/kg. The weight and the tumor volume were measured once a day on day 0, 2, 3, 4, 5, 6, and 8.
(§2) Tumor volume was calculated by the following mathematical formula 1. To investigate the toxicity according to the repeated intravenous administration of the compound of example 1, mouse weight changes were observed and presented in Table 3. Inhibition rate (%) in Table 4 was calculated by the following mathematical formula 2, which indicates the inhibition of tumor growth by the compound presented by %. Tumor Volume(mm^3)=(major axis length of tumor cells, mm)×(minor axis length of tumor cells, mm)^2×0.5 [Mathematical Formula 1] Inhibition Rate (%)=[(Tumor Volume of Control−Tumor Volume of Experimental Group)/(Tumor Volume of Control)]×100 [Mathematical Formula 2]

[2] = Mouse weight changes and symptoms, intraperitoneal administration (B16F10 metastasis experiment); type: in vivo; conditions: for Mouse weight changes (%): ip, Example 1 20 mg/kg/day, topotecan 2 mg/kg/2 day
Protocol: Particularly, the experimental group composed of 6 female mice (C57BL) at 6 weeks was transplanted with B16F10 melanoma cell line. After the cancer cells were grown, the mice were treated with the compound of formula 1 via intraperitoneal injection at the dose of […] every day for 12 days. Inhibition of angiogenesis and the tumor growth were observed. In the meantime, the control group was treated with purified water every day. The comparative group was treated with topotecan at the dose of 2 mg/kg once every other day. Weight changes and cancer metastasis were measured and the results are shown in Table 9, Table 10, and FIG. 10.

[3] = system: B16F10 melanoma cell line; assay: Tumor growth, B16F10 melanoma in C57BL mice, intraperitoneal administration; type: in vivo, mouse; conditions: Example 1 20 mg/kg/day, topotecan 2 mg/kg/2 day; for Tumor volume changes (mm^3): ip; for Inhibition rate (%) of tumor volume: vs control
Protocol: Particularly, the experimental group composed of 5 female mice (C57BL) at 6 weeks was transplanted with B16F10 melanoma cell line. After the cancer cells were grown, the mice were treated with the compound of formula 1 via intraperitoneal injection at the dose of […] for 5 days. Inhibition of angiogenesis and the tumor growth were observed. In the meantime, the control group was treated with the mixed solution comprising 10% DMAC, 10% cremophor and 80% buffer (pH 10) every day. The comparative group was treated with topotecan at the dose of 2 mg/kg once every other day. Weight changes and the newly generated blood vessels were measured and the results are shown in Table 7, Table 8, FIG. 7, and FIG. 8. The tumor volume shown in Table 8 was calculated by the mathematical formula 1 of experimental example 4 and the inhibition rate was calculated by the mathematical formula 2 of experimental example 4.

[4] = system: human rectal cancer cell line HCT116; assay: In vivo anticancer activity, intravenous injection, HCT116 rectal cancer in nude mice; parameters: species or system mouse; conditions: Example 1 30 mg/kg/day, topotecan 2 mg/kg/day; for Tumor volume changes (mm^3): iv; for Inhibition rate (%) of tumor volume: vs control
Protocol: To evaluate the inhibition effect of the compound prepared in example 1 administered via intravenous injection on the growth of rectal cancer, in vivo anticancer activity in mouse was measured. Particularly, nude-mice were grouped for experimental and control groups (5 mice per group). Changes in body weight, tumor volume, and tumor weight were measured to evaluate in vivo anticancer activity.
as §1, with “The prepared compound solution was intravenously administered to the experimental group mice once a day at the dose of 15 mg/kg.” left out
as §2

## COC(=O)c1cccc(NC(=O)/C=C/Oc2ccc(C34CC5CC(CC(C5)C3)C4)cc2)c1 [Example 1, (E)-3-[3-(4-Adamantan-1-yl-phenoxy)-acryloylamino]-benzoic acid methyl ester]
[1]; 30 mg/kg iv, nude mice
  body weight on day 8 compared with control: no significant weight loss
  symptoms during repeated intravenous administration: no specific symptom was observed
[1]; day 0
  Mouse weight changes (%): 100.0 ± 0.0%
[1]; day 2
  Mouse weight changes (%): 96.5 ± 2.9%
[1]; day 3
  Mouse weight changes (%): 94.7 ± 2.3%
[1]; day 4
  Mouse weight changes (%): 96.0 ± 3.5%
[1]; day 5
  Mouse weight changes (%): 100.3 ± 1.5%
[1]; day 6
  Mouse weight changes (%): 101.4 ± 2.5%
[1]; day 8
  Mouse weight changes (%): 99.9 ± 2.3%
[2]; 20 mg/kg ip, C57BL mice
  body weight on the final day of observation (day 12) compared with control: not significantly reduced
[2]; 20 mg/kg ip, C57BL mice, 12 days
  symptoms during repeated intraperitoneal injection: no specific symptom was observed
[2]; day 0
  Mouse weight changes (%): 100.0 ± 0.0%
[2]; day 2
  Mouse weight changes (%): 98.7 ± 3.4%
[2]; day 5
  Mouse weight changes (%): 101.2 ± 4.6%
[2]; day 7
  Mouse weight changes (%): 103.4 ± 3.8%
[2]; day 9
  Mouse weight changes (%): 107.6 ± 2.8%
[2]; day 12
  Mouse weight changes (%): 107.6 ± 3.3%
[3]; day 0
  Tumor volume changes (mm^3): 0.0 ± 0.0 mm^3
[3]; day 3
  Tumor volume changes (mm^3): 26.8 ± 3.6 mm^3
  Inhibition rate (%) of tumor volume: 19.7%
[3]; day 4
  Tumor volume changes (mm^3): 36.4 ± 4.8 mm^3
  Inhibition rate (%) of tumor volume: 22.5%
[3]; day 5
  Tumor volume changes (mm^3): 55.8 ± 5.8 mm^3
  Inhibition rate (%) of tumor volume: 28.9%
[4]; day 0
  Tumor volume changes (mm^3): 0.0 ± 0.0 mm^3
[4]; day 2
  Tumor volume changes (mm^3): 19.4 ± 5.8 mm^3
  Inhibition rate (%) of tumor volume: 35.3%
[4]; day 4
  Tumor volume changes (mm^3): 50.6 ± 20.9 mm^3
  Inhibition rate (%) of tumor volume: 52.1%
[4]; day 6
  Tumor volume changes (mm^3): 114.3 ± 36.8 mm^3
  Inhibition rate (%) of tumor volume: 47.0%
[4]; day 8
  Tumor volume changes (mm^3): 176.8 ± 50.0 mm^3
  Inhibition rate (%) of tumor volume: 45.7%

## CC[C@@]1(O)C(=O)OCc2c1cc1n(c2=O)Cc2cc3c(CN(C)C)c(O)ccc3nc2-1 [topotecan, reference compound]
[1]; day 0
  Mouse weight changes (%): 100.0 ± 0.0%
[1]; day 2
  Mouse weight changes (%): 101.7 ± 1.0%
[1]; day 3
  Mouse weight changes (%): 101.8 ± 1.1%
[1]; day 4
  Mouse weight changes (%): 103.2 ± 5.4%
[1]; day 5
  Mouse weight changes (%): 99.1 ± 1.4%
[1]; day 6
  Mouse weight changes (%): 98.7 ± 1.7%
[1]; day 8
  Mouse weight changes (%): 95.6 ± 1.4%
[2]; day 0
  Mouse weight changes (%): 100.0 ± 0.0%
[2]; day 2
  Mouse weight changes (%): 101.0 ± 2.9%
[2]; day 5
  Mouse weight changes (%): 103.5 ± 6.1%
[2]; day 7
  Mouse weight changes (%): 104.0 ± 4.6%
[2]; day 9
  Mouse weight changes (%): 104.3 ± 6.2%
[2]; day 12
  Mouse weight changes (%): 103.7 ± 5.5%
[3]; day 0
  Tumor volume changes (mm^3): 0.0 ± 0.0 mm^3
[3]; day 3
  Tumor volume changes (mm^3): 20.9 ± 2.6 mm^3
  Inhibition rate (%) of tumor volume: 37.4%
[3]; day 4
  Tumor volume changes (mm^3): 27.1 ± 2.3 mm^3
  Inhibition rate (%) of tumor volume: 42.4%
[3]; day 5
  Tumor volume changes (mm^3): 42.9 ± 4.5 mm^3
  Inhibition rate (%) of tumor volume: 45.4%
[4]; day 0
  Tumor volume changes (mm^3): 0.0 ± 0.0 mm^3
[4]; day 2
  Tumor volume changes (mm^3): 16.5 ± 3.9 mm^3
  Inhibition rate (%) of tumor volume: 44.9%
[4]; day 4
  Tumor volume changes (mm^3): 44.3 ± 10.1 mm^3
  Inhibition rate (%) of tumor volume: 58.1%
[4]; day 6
  Tumor volume changes (mm^3): 69.1 ± 13.2 mm^3
  Inhibition rate (%) of tumor volume: 67.9%
[4]; day 8
  Tumor volume changes (mm^3): 93.1 ± 22.3 mm^3
  Inhibition rate (%) of tumor volume: 71.4%
